“Also recorded” adds a separate entry of the source. Where a SMILES comes first, the peptide text is derived from it. Primed or numbered codes have the meaning given here. The star is where a group is joined. Adapalene = Adapaleneyl (acyl group from adapalene), COc1ccc(-c2ccc3cc(C(=O)*)ccc3c2)cc1C12CC3CC(CC(C3)C1)C2; Propyl(2R-PamO,3-PamO) = CCCCCCCCCCCCCCCC(=O)OC[C@H](C*)OC(=O)CCCCCCCCCCCCCCC; X2 = CCCCCCCCCCCCCCCC(=O)OCC(C*)OC(=O)CCCCCCCCCCCCCCC; X1 = CC(=O)NCCCOCCOCCOCCCNC(=O)COCC(=O)*; Palmitoyl = CCCCCCCCCCCCCCCC(=O)*; Ahx = NCCCCCC(=O)O; Dhc(Pam)2″ = lipid
Legend:
TLR2 = TLR2 (Homo sapiens, UniProt O60603); assay: In vitro TLR2 functional bioassay (NF-κB luciferase, HEK293/hTLR2 cells); type: cell-based; parameters: host or cells: HEK293 stably transfected with pUNO-hTLR2, transiently transfected with the pNifty-Luc reporter; conditions: for TLR2 Agonist Activity: screened at 1 μg/mL; for EC50: log(agonist) vs. normalized response, doses 0.01 ng/mL to 1 μg/mL, read-out: EC50; for fold of enhancement vs SAA at 1 μg/mL / fold of enhancement vs SAA at 10 μg/mL: compound at 1 μg/mL
Text: In Vitro TLR2 Functional Bioassay The in vitro TLR2 functional bioassay was developed and optimized for use in screening soluble compound libraries to identify both TLR2 agonists and antagonists. In this study, the TLR2 functional bioassay was used as a fast high throughput screening to identify TLR2 agonist ligands by measuring the inducing activity of NF-κB. HEK293/hTLR2 cells, highly overexpressing human TLR2, were used along with the parental HEK293, cells as a negative control. Cells were seeded at a density of 40,000 per well using a WellMate® Microplate dispenser (Thermo Fischer Scientific/Matrix) in black 96-well plates with opaque white wells (Perkin Elmer Wallac, Waltham, Mass.) and then incubated at 37° C. On day 2, the cells were transiently transfected with pNifty-Luc (InvivoGen), an NF-κB inducible reporter plasmid expressing the luciferase reporter gene (Zuany-Amorim, C., J., et al. Nat Rev Drug Discov, 2002. 1(10):797-807), using an optimized 4:1 ratio by volume of Fugene® HD Transfection Reagent (Roche Applied Science, Indianapolis, Ind.) to pNifty-Luc plasmid DNA (1 μg/mL). […] On day 4 after 24 hrs of peptide stimulation, luciferase induced activity by the induction of NF-κB was measured. Media was aspirated from the wells using an ELx405 Select plate washer (BioTek, Winooski, Vt.), 150 μg/mL D-luciferin (Gold Biotechnology, St. Louis, Mo.) was dispensed using the microplate dispensor; the plates were incubated at 37° C. for 5 min. The luminescence intensity was measured using the standard luminescence protocol on a Victor™ X4 plate-reader equipped with a plate stacker for readout of multiple plates at a time (PerkinElmer, Waltham, Mass.). For each in vitro TLR2 bioassay, at least three different experiments were performed in triplicate (n=3+). Data were analyzed with GraphPad Prism software and curves were generated with the appropriate nonlinear fit regression analysis.
The in vitro TLR2 functional bioassay was developed and optimized for use in high-throughput screening of soluble compound libraries to identify both TLR2 agonists and antagonists. The bioassay measures the induction of NF-κB signaling via TLR2 in HEK-293/hTLR2 cells and parental HEK-293 cells as a negative control. Cells were seeded at a density of 40,000 per well using a WellMate Microplate dispenser (Thermo Fisher Scientific/Matrix) in black 96-well plates with opaque white wells (PerkinElmer, Waltham, Mass.) and then incubated at 37° C. On day 2, the cells were transiently transfected with pNifty-Luc (InvivoGen, San Diego, Calif.), an NF-κB inducible reporter plasmid expressing the luciferase reporter gene[28] using an optimized 4:1 ratio by volume of FugeneHD Transfection Reagent (Promega, Madison, Wis.) to pNifty-Luc plasmid DNA (1 μg/mL). […] […] On day 4 after 24 h of peptide stimulation, luciferase induced activity by the induction of NF-κB was measured. Media was aspirated from the wells using an ELx405 Select CW plate washer (BioTek, Winooski, Vt.), 150 μg/mL D-luciferin (Gold Biotechnology, St. Louis, Mo.) was dispensed using the microplate dispensor; the plates were incubated at 37° C. for 5 min. The luminescence intensity was measured using the standard luminescence protocol on a Victor X4 Multilabel plate reader equipped with a plate stacker for readout of multiple plates at a time (PerkinElmer, Waltham, Mass.). […] Data were analyzed with GraphPad Prism software and curves were generated with the appropriate nonlinear fit regression analysis.

[1] = system: Trp1455/9M-specific CD8 T cells; assay: In vivo cellular immune response assay (immune adjuvant); parameters: species or system B6 mice; conditions: for in vivo immune adjuvant activity (generation and persistence of antigen-specific CD8 T cells): compared with Pam2CSK4 and Pam3CSK4
Description: To assess the efficacy of T-02 as an immune adjuvant, mice were immunized i.v. with a mixture of 100 μg optimized Trp1455/9M peptide (Guevara-Patino, J. A., et al. J Clin Invest, 2006. 116(5):1382-90), 50 μg anti-CD40 mAb (Clone; FGk-45.5), and 50 μg TLR-2 peptide (T-02, Pam2CSK4, or Pam3CSK4). […] The response of tetramer+ CD8 T cells in the blood was measured on day 7, 21, and 34 by tetramer staining. For tetramer staining, peripheral blood was taken from the submandibular vein and treated briefly with ammonium chloride buffer to lyse red blood cells. Blood cells were stained with FITC-conjugated anti-MHC class II, PerCP Cy5.5-conjugated CD8a (both from eBioscience, San Diego, Calif.), and phycoerythrin-conjugated Trp1455/9M/H-2D^b tetramers (provided by the NIH tetramer Facility, Emory University, Atlanta Ga.) for 40 min in ice. Fluorescence was evaluated using a FACSCalibur™ flow cytometer (BD Biosciences) and analyzed using FlowJo software.
C57BL/6 (B6) mice 6-8 weeks old were purchased from Charles River (Wilmington, Mass.). To assess the efficacy of 10 as an immune adjuvant, B6 mice were immunized i.v. with a mixture (in a volume of 200 μl) of 100 μg optimized Trp1455/9M peptide,[10c] 50 μg anti-CD40 monoclonal antibody (Clone; FGk-45.5), and 50 μg TLR2 agonist (10, Pam2CSK4, or Pam3CSK4). […] The response of tetramer positive CD8 T cells in the blood was measured on day 7, 21 and 34 by tetramer staining. For tetramer staining, peripheral blood was taken from the submandibular vein and treated briefly with ammonium chloride buffer to lyse red blood cells. Blood cells were stained with FITC-conjugated anti-MHC class II, PerCP Cy5.5-conjugated CD8a, and phycoerythrin-conjugated Trp1455/9M/H-2D^b tetramers for 40 min in ice. Fluorescence was evaluated using a FACSCalibur flow cytometer (BD Biosciences) and analyzed using FlowJo software.

Chain of TLR2 (O60603 21-784): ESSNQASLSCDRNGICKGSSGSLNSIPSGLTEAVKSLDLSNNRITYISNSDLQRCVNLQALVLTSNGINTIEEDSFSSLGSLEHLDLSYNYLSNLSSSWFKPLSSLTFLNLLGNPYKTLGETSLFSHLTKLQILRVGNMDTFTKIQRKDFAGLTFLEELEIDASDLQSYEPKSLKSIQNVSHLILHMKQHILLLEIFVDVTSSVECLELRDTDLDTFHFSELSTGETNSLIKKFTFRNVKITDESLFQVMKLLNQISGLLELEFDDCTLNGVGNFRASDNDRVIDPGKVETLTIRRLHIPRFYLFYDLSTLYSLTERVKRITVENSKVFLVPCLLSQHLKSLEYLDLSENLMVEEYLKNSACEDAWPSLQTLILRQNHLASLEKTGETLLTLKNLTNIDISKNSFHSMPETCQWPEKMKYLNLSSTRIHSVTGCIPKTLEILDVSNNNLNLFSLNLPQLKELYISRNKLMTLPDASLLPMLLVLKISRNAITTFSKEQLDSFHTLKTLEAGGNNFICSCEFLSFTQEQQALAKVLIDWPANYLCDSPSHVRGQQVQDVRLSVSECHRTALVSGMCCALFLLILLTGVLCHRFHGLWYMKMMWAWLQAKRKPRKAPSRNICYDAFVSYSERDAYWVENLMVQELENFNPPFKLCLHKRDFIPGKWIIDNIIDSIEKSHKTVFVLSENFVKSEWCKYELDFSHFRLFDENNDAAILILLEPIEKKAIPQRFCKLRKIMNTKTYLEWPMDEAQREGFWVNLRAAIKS
Chain of TLR2 (Q9Y2C9 32-796 partner): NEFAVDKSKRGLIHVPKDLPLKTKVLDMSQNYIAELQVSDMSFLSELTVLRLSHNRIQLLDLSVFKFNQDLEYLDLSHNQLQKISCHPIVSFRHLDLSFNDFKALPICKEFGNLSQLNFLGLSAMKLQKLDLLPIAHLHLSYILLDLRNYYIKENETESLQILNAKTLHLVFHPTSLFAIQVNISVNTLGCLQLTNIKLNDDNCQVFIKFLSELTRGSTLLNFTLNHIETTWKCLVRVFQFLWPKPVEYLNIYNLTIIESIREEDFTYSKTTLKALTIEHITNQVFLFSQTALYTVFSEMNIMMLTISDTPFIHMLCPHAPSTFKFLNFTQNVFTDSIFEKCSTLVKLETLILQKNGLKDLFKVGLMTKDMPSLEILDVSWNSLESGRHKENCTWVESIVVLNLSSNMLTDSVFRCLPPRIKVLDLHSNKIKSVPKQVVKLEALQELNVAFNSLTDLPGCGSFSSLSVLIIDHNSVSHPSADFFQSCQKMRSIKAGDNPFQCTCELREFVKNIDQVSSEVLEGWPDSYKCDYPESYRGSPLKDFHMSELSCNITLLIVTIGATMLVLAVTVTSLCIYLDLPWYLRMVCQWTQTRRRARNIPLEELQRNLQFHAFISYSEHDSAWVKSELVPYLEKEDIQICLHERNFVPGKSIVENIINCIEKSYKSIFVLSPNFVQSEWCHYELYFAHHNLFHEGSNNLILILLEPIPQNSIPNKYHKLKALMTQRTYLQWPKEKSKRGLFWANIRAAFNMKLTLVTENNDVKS

Tretinoin-Dhc(Pam)2-Gly-Asn-Asn-Asp-Glu-Ser-Asn-Ile-Ser-Phe-Lys-Glu-Lys-NH2 [Compound 7]
TLR2 Agonist Activity (TLR2): Yes

CCCCCCCCCCCCCCCC(=O)OC[C@H](CSC[C@H](NC(=O)COCC(=O)NCCCOCCOCCOCCCNC(C)=O)C(=O)NCC(=O)N[C@@H](CC(N)=O)C(=O)N[C@@H](CC(N)=O)C(=O)N[C@@H](CC(=O)O)C(=O)N[C@@H](CCC(=O)O)C(=O)N[C@@H](CO)C(=O)N[C@@H](CC(N)=O)C(=O)N[C@H](C(=O)N[C@@H](CO)C(=O)N[C@@H](Cc1ccccc1)C(=O)N[C@@H](CCCCN)C(=O)N[C@@H](CCC(=O)O)C(=O)N[C@@H](CCCCN)C(N)=O)[C@@H](C)CC)OC(=O)CCCCCCCCCCCCCCC [Compound 3] (X1-C(Propyl(2R-PamO,3-PamO))GNNDESNISFKEK-NH2)
EC50 (TLR2): 55.6 nM | TLR2 Agonist Activity (TLR2): Yes

Fluorescein-Dhc(Pam)2-Gly-Asn-Asn-Asp-Glu-Ser-Asn-Ile-Ser-Phe-Lys-Glu-Lys-NH2 ({Fluorescein-Dhc(Pam)2″}-GNNDESNISFKEK-NH2) [Compound 2]
TLR2 Agonist Activity (TLR2): Yes

CCCCCCCCCCCCCCCC(=O)OC[C@H](CSC[C@H](NC(=O)COCC(=O)NCCCOCCOCCOCCCNC(C)=O)C(=O)NCC(=O)N[C@@H](CO)C(=O)N[C@@H](CCC(N)=O)C(=O)N[C@@H](CC(N)=O)C(=O)N[C@@H](CC(C)C)C(=O)N[C@@H](C)C(=O)N[C@@H](CO)C(=O)N[C@@H](CC(C)C)C(=O)N[C@@H](CCC(=O)O)C(=O)N[C@@H](CCC(=O)O)C(N)=O)OC(=O)CCCCCCCCCCCCCCC [Compound 9] (X1-C(Propyl(2R-PamO,3-PamO))GSQNLASLEE-NH2)
fold of enhancement vs SAA at 1 μg/mL (TLR2): 13 fold | fold of enhancement vs SAA at 10 μg/mL (TLR2): 4.8 fold | EC50 (TLR2): 78.4 nM

CCCCCCCCCCCCCCCC(=O)OC[C@H](CSC[C@H](NC(=O)COCC(=O)NCCCOCCOCCOCCCNC(C)=O)C(=O)NCC(=O)NC(CO)C(=O)NCCCOCCOCCOCCCNC(=O)COCC(N)=O)OC(=O)CCCCCCCCCCCCCCC (stereo partly drawn) [Compound 10, Ac-PEGO-Dhc(Pam)2-Gly-Ser-PEGO-NH2]
in vivo immune adjuvant activity (generation and persistence of antigen-specific CD8 T cells) [1]: stimulated the immune system by generation and persistence of antigen-specific CD8 T cells; also recorded: exhibited activity similar to the other known TLR2 agonists; also recorded: induced an in vivo immune response comparable to the currently available TLR2 synthetic agonists | in vivo immune adjuvant activity (generation and persistence of antigen-specific CD8 T cells) ([1]; listed as T-02): exhibited similar in vivo activity comparable to the TLR-2 agonists, Pam2CSK4 and Pam3CSK4 | fluorescence of stained tetramer positive CD8 T cells ([1]; day 7): High fluorescence | response rate of the tetramer positive CD8 T cells ([1]; day 7): 100% | maximum amount of fluorescently stained tetramer positive CD8 T cells ([1]; day 7, peripheral blood, i.v. immunization, n=3): 49.6% | tetramer positive CD8 T cells ([1]; day 21): 25.7% | tetramer positive CD8 T cells ([1]; day 34): 12.7% | fold of enhancement vs SAA at 1 μg/mL (TLR2): 14 fold | fold of enhancement vs SAA at 10 μg/mL (TLR2): 5.2 fold

Trp1455/9M: Trp1455/9M (TAPDNLGYM), H2 Db-optimized peptide from mouse tyrosinase-related protein-1, epitope for CD8 T cells [reference compound]
TLR2 agonist activity of vaccine peptide (TLR2): not a TLR2 agonist

CCCCCCCCCCCCCCCC(=O)OCC(CSCC(NC(=O)COCC(=O)NCCCOCCOCCOCCCNC(C)=O)C(=O)NC(CO)C(=O)NC(CCCNC(=N)N)C(=O)NC(Cc1ccccc1)C(=O)NC(CC(=O)O)C(=O)NC(CCC(=O)O)C(=O)NC(CC(=O)O)C(=O)NC(CC(=O)O)C(=O)NC(CC(C)C)C(=O)NC(CCC(=O)O)C(N)=O)OC(=O)CCCCCCCCCCCCCCC (centres unmarked) [Compound 8] (X1-C(X2)SRFDEDDLE-NH2; configuration not given here)
fold of enhancement vs SAA at 1 μg/mL (TLR2): 11 fold | fold of enhancement vs SAA at 10 μg/mL (TLR2): 4.2 fold

Ac-Aha-Dhc(Pam)2-Gly-Asn-Asn-Asp-Glu-Ser-Asn-Ile-Ser-Phe-Lys-Glu-Lys-NH2 ({Ac-Ahx-Dhc(Pam)2″}-GNNDESNISFKEK-NH2) [Compound 4]
TLR2 Agonist Activity (TLR2): Yes

Pam-Dhc(Pam)2-Gly-Asn-Asn-Asp-Glu-Ser-Asn-Ile-Ser-Phe-Lys-Glu-Lys-NH2 ({Palmitoyl-Dhc(Pam)2″}-GNNDESNISFKEK-NH2) [Compound 1]
TLR2 Agonist Activity (TLR2): Yes

Ac-Aun(C11)-Dhc(Pam)2-Gly-Asn-Asn-Asp-Glu-Ser-Asn-Ile-Ser-Phe-Lys-Glu-Lys-NH2 ({Ac-Aun(C11)-Dhc(Pam)2″}-GNNDESNISFKEK-NH2) [Compound 6]
TLR2 Agonist Activity (TLR2): Yes

Adapalene-Dhc(Pam)2-Gly-Asn-Asn-Asp-Glu-Ser-Asn-Ile-Ser-Phe-Lys-Glu-Lys-NH2 ({Adapalene-Dhc(Pam)2″}-GNNDESNISFKEK-NH2) [Compound 5]
TLR2 Agonist Activity (TLR2): Yes

From patent publication US11458212B2, “Molecular imaging of cancer cells in vivo” (H. Lee Moffitt Cancer Center and Research Institute, Inc., priority 2011, dated 2022)
